What all share (type): cell-based, mouse
The test system of one test is IL-10 mRNA in LN cells. Put plainly: IL-10 mRNA by real-time PCR in LN cells of GA-immunized CD-1, BALB/cByJ, SJL/J mice (Example III). To be noted: 6 hours. The procedure: On Day 0, mice were immunized with 250 μg GA (GMA, Mylan Pharmaceuticals, Inc.) and CFA. The GA solution (20 mg/mL) was diluted with Dulbecco's Phosphate-Buffered Saline to 5 mg/mL. The dosing formulation consisted of equal volumes of the diluted GA solution (5 mg/mL) and CFA solution, mixed until well-emulsified. Animals were weighed and allocated to groups. Animals were dosed by injection into four footpads. The injection volume per animal was 0.1 mL (about 10 μL into each front footpad, and 40 μL into each hind footpad).
Immunized animals were euthanized by cervical dislocation on Day 10 post-immunization. Lymph node cells were isolated from animals and treated with Myelin Basic Protein (MBP, a negative control), Concanavalin A (ConA, a positive control) or GA as shown in Table 16. Lymph nodes in the axillary and popliteal regions were removed aseptically in a purifier clean bench. […] The LN were then washed 3 times with −5 mL of RPMI medium, and isolated by pressing the LN with a syringe plunger. […] The cell suspension was centrifuged at about 200×g for 10 minutes at about 4° C. and re-suspended in ice cold enriched DCCM-1 medium. Cells were seeded in 96-well tissue culture plates.
LN cells isolated from GA-immunized animals were stimulated with GA (GMA, Mylan Pharmaceuticals, Inc.) at concentrations as indicated in Tables 16 and 17. A positive control was prepared by treating LN cells with 2.5 μg/mL concavalin A (ConA, a non-specific T cell stimulant). Myelin basic protein (MBP, 10 μg/mL) and enriched DCCM-1 medium served as negative controls. The cells from all groups each were stimulated with the same GA lot. Each reaction was set up in triplicate.
After incubation at about 37° C. in a humidified CO2 incubator for 6 hours, the cells were lysed for total RNA isolation. Total RNA was isolated from treated LN cells using SV 96 Total RNA Isolation System according to the manufacturer's protocol (Promega, Cat. #Z3500). Cells were washed once with Phosphate Buffered Saline (PBS) and lysed in RNA lysis buffer. The lysate was transferred to wells of the SV 96 binding plate. Samples were washed with RNA wash solution and treated with DNase. Total RNA was eluted with nuclease-free water from the binding plate.
After the reverse transcriptase reaction was completed, cDNA samples were used directly for real-time PCR to measure the response biomarker mRNA levels produced by the stimulated cells. […] All probes for target genes contained FAM dye, and probes for the internal control contained VIC®/MGB dye. Samples will be prepared and run in 96-well plates using a Real-Time PCR system (7500, Life Technologies). This system allows direct detection of PCR-product formation by measuring the increase in fluorescent emission continuously during the PCR reaction. A relative quantitation method was used to analyze changes in mouse IL-2, IL-4, IL-5, IL-10, IL-13, IFN-γ and TNF-α expression in GA-treated samples relative to the untreated control (enriched DCCM-1 treated) samples. The Real-Time PCR program was:
The levels of mouse cytokine amplicons (IL-2, IL-4, IL-5, IL-10, IL-13, mIFN-γ and TNF-α) were normalized to internal probe levels (GAPDH) from the same samples. The following equations were used to calculate the relative increase in response to GA stimulation compared to the control sample: ΔCT=CT_target−CT_reference ΔΔCT=−ΔCT_Treated−CT_VC
Background: Real-time PCR tracks product formation cycle by cycle.

Test [1] has as its system IL-10 secreted by LN cells. Description: IL-10 secretion by GA-stimulated LN cells, MSD 9-plex ELISA (Example II). To be noted: for IL-10 secretion response ratio (treated cell medium to control DCCM1 medium): 21 hr. The procedure:
(§1) Animals at 8 weeks of age were immunized by injection into four footpads using a 1 mL syringe with a 27-G, 1⁄2-inch needle. […] Ten days post-immunization, immunized animals were sacrificed via cervical dislocation. […] The LN cells were isolated by pressing the LN with the plunger end of a sterile syringe. […] Trypan blue exclusion method was used to determine the cell density of viable cells in the suspension. […] Cat. […] LN cells were plated into a 24-well tissue culture plate for drug stimulation. […] Cell debris was removed by centrifugation at ca. 200×g for 10 minutes at 4° C. Cytokines secreted by treated cells were determined on the day of collection by ELISA using mouse TH 1/TH 2 9-Plex Tissue Culture Kit (Meso Scale Discovery; Cat No. […]-2, Lot #: K0032839) which detects Th1 cytokines (IFN-γ, IL-2, IL-12, IL-1β, TNF-α, CXCL1) and Th2 cytokines (IL-4, IL-5 and IL-10). For IFN-γ, culture media also were assayed at 45 hours using mouse IFN-γ Tissue Culture Kit (Meso Scale Discovery; Cat No. […] For the positive control, 0.5 mL of LN cells (5×10^6 cells/well) were treated with 0.5 mL of ConA (5 μg/mL). For the negative control, 0.5 mL of LN cells (5×10^6 cells/well) were treated with 0.5 mL of MBP (20 μg/mL). The LN cells with mock stimulation (enriched DCCM1 medium) were used to monitor the background level of a cytokine. For the cytokine assays, calibration standards or samples were incubated in the MULTI-SPOT or the SINGLE-SPOT plate and each cytokine bound to its corresponding capture antibody. All test samples were run in duplicate. The amount of each cytokine on its distinct spot was quantified using a cytokine-specific detection antibody labeled with MSD SULFO-TAGTM reagent. Electrochemiluminescent signals from immobilized SULFO-TAGTM-labeled complexes on each spot from each well were captured by the MSD SECTOR Imager 6000, which produces a signal directly proportional to the amount of captured cytokine in a test sample. The levels of cytokines in test samples were derived by interpolation from calibration curves with calibration standards of known concentrations using reagents provided with the MSD kits. Kits were used according to the manufacturer's protocols. […] Data are expressed as a response ratio of cytokine concentration in treated cell medium to control DCCM1 medium.
In general terms: An ELISA detects its analyte on a solid surface through an enzyme-linked reagent.

In test [2] the test system is IL-12 (total) secreted by LN cells. Description: IL-12 (total) secretion by GA-stimulated LN cells, MSD 9-plex ELISA (Example II). To be noted: for IL-12 (total) secretion response ratio (treated cell medium to control DCCM1 medium): 21 hr. The procedure: as §1
The mark [3] stands for this setting: BALB/cByJ, immunized GA Intraplantar.
[4] abbreviates: BALB/cByJ, immunized GA Lower Limb.
Setting [5] is: BALB/cByJ, immunized Mannitol Intraplantar.
Where [6] appears, read: C57BL10J, immunized GA Intraplantar.
Setting [7] is: C57BL10J, immunized GA Lower Limb.
Where [8] appears, read: C57BL10J, immunized Mannitol Intraplantar.
[9] abbreviates: CD-1, immunized GA Intraplantar.
Setting [10] is: CD-1, immunized Mannitol Intraplantar.
Where [11] appears, read: Group 1C: CD-1, GA-immunized, stimulation 10 μg/mL.
[12] abbreviates: Group 2C: BALB/cByJ, GA-immunized, stimulation 10 μg/mL.
[13] abbreviates: Group 3C: SJL/J, GA-immunized, stimulation 10 μg/mL.

With “Concanavalin A [ConA, reference compound]”, the “IL-10 mRNA Expression” value in the test on IL-10 mRNA in LN cells (Group 1C: CD-1, GA-immunized, stimulation 2.5 μg/mL) came out at 0.4 fold change vs control; in the test with IL-10 mRNA in LN cells (Group 2C: BALB/cByJ, GA-immunized, stimulation 2.5 μg/mL) it was 0.9 fold change vs control; in the test on IL-10 mRNA in LN cells (Group 3C: SJL/J, GA-immunized, stimulation 2.5 μg/mL), 0.4 fold change vs control. Besides, the “IL-10 secretion response ratio (treated cell medium to control DCCM1 medium)” value (from here on “IL-10 secretion response ratio”) in test [1] (setting [3]) amounted to 23.65; in test [1] (setting [4]), 18.32; in test [1] (setting [5]) it was 21.86; in test [1] (setting [6]), 1.62; in test [1] (setting [7]), 1.50; in test [1] (setting [8]), 1.04. For the same molecule, the “IL-10 secretion response ratio” value in test [1] (setting [9]) is listed as 13.70; in test [1] (CD-1, immunized GA Lower Limb), 8.64; in test [1] (setting [10]) it was 10.96. The “IL-12 (total) secretion response ratio (treated cell medium to control DCCM1 medium)” value (“IL-12 (total) secretion response ratio” below) in test [2] (setting [3]) came to 1.66; in test [2] (setting [4]) it was 1.10; in test [2] (setting [5]), 1.44; in test [2] (setting [6]), 1.88; in test [2] (setting [7]), 1.01; in test [2] (setting [8]) it was 0.92. Moreover, the “IL-12 (total) secretion response ratio” value in test [2] (setting [9]) is 1.09; in test [2] (CD-1, immunized GA Lower Limb), 1.91; in test [2] (setting [10]), 1.80.

For “L-glutamic acid polymer with L-alanine, L-lysine and L-tyrosine, acetate (salt) [GA]”, the “IL-10 mRNA Expression” value stood at 0.7 fold change vs control with IL-10 mRNA in LN cells (Group 1C: CD-1, GA-immunized, stimulation 0.3 μg/mL); 0.8 fold change vs control in the test on IL-10 mRNA in LN cells (Group 1C: CD-1, GA-immunized, stimulation 1 μg/mL); 0.9 fold change vs control in the test with IL-10 mRNA in LN cells (Group 1C: CD-1, GA-immunized, stimulation 3 μg/mL); 0.9 fold change vs control in the test with IL-10 mRNA in LN cells (setting [11]); 0.7 fold change vs control in the test with IL-10 mRNA in LN cells (Group 2C: BALB/cByJ, GA-immunized, stimulation 0.3 μg/mL); 1.0 fold change vs control in the test on IL-10 mRNA in LN cells (Group 2C: BALB/cByJ, GA-immunized, stimulation 1 μg/mL). Also, the “IL-10 mRNA Expression” value in the test on IL-10 mRNA in LN cells (Group 2C: BALB/cByJ, GA-immunized, stimulation 3 μg/mL) is listed as 1.3 fold change vs control; with IL-10 mRNA in LN cells (setting [12]), 1.3 fold change vs control; in the test with IL-10 mRNA in LN cells (Group 3C: SJL/J, GA-immunized, stimulation 0.3 μg/mL), 0.5 fold change vs control; with IL-10 mRNA in LN cells (Group 3C: SJL/J, GA-immunized, stimulation 1 μg/mL), 0.6 fold change vs control; in the test on IL-10 mRNA in LN cells (Group 3C: SJL/J, GA-immunized, stimulation 3 μg/mL) it was 0.5 fold change vs control; in the test with IL-10 mRNA in LN cells (setting [13]), 0.8 fold change vs control. Also, in test [1] (BALB/cByJ cells and CD1 cells), the “IL-10 secretion, dose response to GA (in words)” value is “dose-dependent manner”. For the same molecule, in test [2] (cells from any of the three mouse strains), the “IL-12 secretion, dose response to GA (in words)” value is “No dose response”.

B1: MBP: myelin basic protein, a negative control (protein, UniProt P02686 1-304, looked up)
Myelin basic protein: MGNHAGKRELNAEKASTNSETNRGESEKKRNLGELSRTTSEDNEVFGEADANQNNGTSSQDTAVTDSKRTADPKNAWQDAHPADPGSRPHLIRLFSRDAPGREDNTFKDRPSESDELQTIQEDSAATSESLDVMASQKRPSQRHGSKYLATASTMDHARHGFLPRHRDTGILDSIGRFFGGDRGAPKRGSGKDSHHPARTAHYGSLPQKSHGRTQDENPVVHFFKNIVTPRTPPPSQGKGRGLSLSRFSWGAEGQRPGFGYGGRASDYKSAHKGFKGVDAQGTLSKIFKLGGRDSRSGSPMARR
For the molecule B1, the results for the “IL-10 mRNA Expression” value in the test on IL-10 mRNA in LN cells (setting [11]), with IL-10 mRNA in LN cells (setting [12]) and in the test on IL-10 mRNA in LN cells (setting [13]) were 0.7 fold change vs control, 1.0 fold change vs control and 0.3 fold change vs control, respectively. Further, the “IL-10 secretion response ratio” value in test [1] (setting [3]) turned out to be 1.10; in test [1] (setting [4]), 1.12; in test [1] (setting [5]), 1.07; in test [1] (setting [6]), 1.04; in test [1] (setting [7]) it was 1.00; in test [1] (setting [8]), 1.08. Moreover, the “IL-10 secretion response ratio” value stood at 1.39 in test [1] (setting [9]); 1.41 in test [1] (CD-1, immunized GA Lower Limb); 1.38 in test [1] (setting [10]). For the same molecule, the “IL-12 (total) secretion response ratio” value in test [2] (setting [3]) came to 1.09; in test [2] (setting [4]), 1.04; in test [2] (setting [5]) it was 1.05; in test [2] (setting [6]), 1.18; in test [2] (setting [7]), 1.19; in test [2] (setting [8]), 1.13. Further, the “IL-12 (total) secretion response ratio” value is on record as 1.22 in test [2] (setting [9]); 1.18 in test [2] (CD-1, immunized GA Lower Limb); 0.99 in test [2] (setting [10]).

For the origin of these results see patent publication US10344330B2, “Glatiramer acetate response biomarker mRNA potency assay” (Mylan Inc., priority 2013, dated 2019).
